# Structures can show the parent of a compound that is named as a salt.
# Biological target: human factor IXa (Homo sapiens (Human), UniProt P00740)
# Test: Factor IXa enzyme assay (inhibitory activity against factor IXa)
# Format: biochemical
# Conditions: substrate SPECTROFLUOR FIXa 100 μM, factor IXa 2.0 μg/ml, 60 minutes at room temperature, fluorescence
# Experimental: Determination of Inhibitory Activity Against Factor IXa
# Inhibitory activity against factor IXa was tested using the substrate SPECTROFLUOR FIXa (American Diagnostica Inc.; 500 West Avenue, Stamford, Conn. 06902 USA; Pr. No. 299F) and human factor IXa (American Diagnostica Inc.; Pr. No. 449b). Test substances dissolved in buffer A (50 mM α,α,α-tris (hydroxymethyl)methylamine (Tris), 100 mM NaCl, 5 mM CaCl2, 15% (v/v) ethylene glycol, pH 8.0) were mixed with factor IXa (2.0 μg/ml final concentration). The enzyme reaction was started by addition of SPECTROFLUOR FIXa (100 μM final concentration). After incubation for 60 minutes at room temperature, the reaction was stopped by the addition of 20% (v/v) acetic acid solution, and then fluorescence value measured (Excitation Wavelength:355 nm, Emission Wavelength; 460 nm) in a microtiter plate reader (ARVO 1420 Multilabel Counter; PerkinElmer).
# IC50 was calculated from a dilution series of the test substance with the aid of the software, Symix Assay Explorer (Symyx Technologies, Inc.).
# Sequence of human factor IXa (P00740 227-461): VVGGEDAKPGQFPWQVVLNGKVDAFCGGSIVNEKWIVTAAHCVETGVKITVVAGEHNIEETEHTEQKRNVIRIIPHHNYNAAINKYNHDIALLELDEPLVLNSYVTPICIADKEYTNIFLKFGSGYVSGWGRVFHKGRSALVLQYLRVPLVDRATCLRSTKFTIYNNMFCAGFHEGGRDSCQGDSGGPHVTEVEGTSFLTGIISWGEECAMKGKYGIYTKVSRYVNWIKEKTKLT
# Sequence of human factor IXa (P00740 47-191 partner): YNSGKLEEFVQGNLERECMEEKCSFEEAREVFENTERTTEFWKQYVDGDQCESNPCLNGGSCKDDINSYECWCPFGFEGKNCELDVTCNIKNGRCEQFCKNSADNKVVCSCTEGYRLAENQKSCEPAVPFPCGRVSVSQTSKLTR
smiles,measurement,value
"Nc1nccc2cc(NC(=O)C(O)c3cccc(-c4ccc(OC(F)(F)F)cc4)c3)ccc12 (stereo not drawn) [Compound 22, N-(1-aminoisoquinolin-6-yl)-2-hydroxy-2-(4′-(trifluoromethoxy)biphenyl-3-yl)acetamide]",IC50,760 nM
"CC(C)(C)c1ccc(-c2cccc(C(O)C(=O)Nc3ccc(C(=N)N)cc3)c2)cc1 (stereo not drawn) [Compound 37, 2-(4′-tert-butylbiphenyl-3-yl)-N-(4-carbamimidoylphenyl)-2-hydroxyacetamide hydrochloride]",IC50,160 nM
"N=C(N)c1ccc(NC(=O)C(O)c2cccc(-c3ccc(OC(F)(F)F)cc3)c2)cc1 (stereo not drawn) [Compound 13, N-(4-carbamimidoylphenyl)-2-hydroxy-2-(4′-(trifluoromethoxy)biphenyl-3-yl)acetamide]",IC50,450 nM
"N=C(N)c1ccc(NC(=O)C(O)c2cccc(-c3ccc(OC(F)(F)F)cc3)c2)cc1 (stereo not drawn) [Compound 9, N-(4-carbamimidoylphenyl)-2-hydroxy-2-(4′-(trifluoromethoxy)biphenyl-3-yl)acetamide]",IC50,440 nM
"CC(C)(C)c1ccc(-c2cccc(C(O)C(=O)Nc3ccc(CN)cc3)c2)cc1 (stereo not drawn) [Compound 52, N-(4-(aminomethyl)phenyl)-2-(4′-tert-butylbiphenyl-3-yl)-2-hydroxyacetamide hydrochloride]",IC50,1450 nM
"CC(C)(C)c1ccc(-c2cccc(C(O)C(=O)Nc3ccc4c(N)nccc4c3)c2)cc1 (stereo not drawn) [Compound 42, N-(1-aminoisoquinolin-6-yl)-2-(4′-tert-butylbiphenyl-3-yl)-2-hydroxyacetamide hydrochloride]",IC50,695 nM

# — patent publication US9161924B2, “Factor IXa inhibitors” (Merck Sharp & Dohme Corp., priority 2011, dated 2015)
